We go through 3 compounds from publication PMC5686178, “Antimicrobial peptides in frog poisons constitute a molecular toxin delivery system against predators” (Nature Communications, 2017).

Where a SMILES comes first, the peptide text is derived from it. Where no end group is shown, it is not given here. [ ]: non-standard residue; d: D form. sY = N[C@@H](Cc1ccc(OS(=O)(=O)O)cc1)C(=O)O; pGlu = O=C1CC[C@@H](C(=O)O)N1

Series [1] deals with Caco-2 monolayers. Put plainly: Transepithelial toxin passage across Caco-2 monolayers (ELISA). The following applies: 60 min. On the technique in general: ELISA stands for enzyme-linked immunosorbent assay.
Series [2] relates to Caco-2 monolayers. Put plainly: Scanning electron microscopy of Caco-2 monolayers. The following applies: fixation 5 min after administration. Type of series: cell-based, Human. Here is the method:
Caco-2 cells were seeded on glass coverslips that were coated with rat tail collagen 1 (Sigma-Aldrich) the day before. The effect of four treatments (100 µM CPF, 100 µM caerulein, 100 µM CPF + caerulein, and a negative control) on differentiated Caco-2 monolayers was visualized. Chemical fixation was performed in 12-well culture plates 5 min after peptide administration (700 µl of solution in all treatments). For fixation, plate wells were filled with 1 ml 2,5% glutaraldehyde in 0.05 M sodium cacodylate buffer (pH 7.4; 37 °C) for 20 min, and subsequently washed twice with the same buffer. Postfixation was performed with 1% osmium tetroxide for 30 min, followed by three rinses with double-distilled water. Dehydration was carried out using a graded hexylene glycol series: 30; 50; 70; and 90%, taking 15 min for each step. Cells were rinsed three times for 10 min with 100% hexylene glycol, and then two more times for 10 min with 100% ethanol. Critical-point drying of coverslips was done using a Balzers union CPD020. Dried coverslips were mounted on carbon-coated stubs with double-sided conductive tape. Gold coating happened with a Jeol 1200JFC fine coater, after which coverslips were examined with a Jeol JSM-840 scanning electron microscope operating at 12 kV.

The test system of series [3] is other vertebrates. The following applies: intravenous, ref [9],[21],[22], cited from earlier work.
For series [4] the following is noted: ref [8],[23]; cited from earlier work. From the text: As the main model for our study, we used a peptide pair composed of the systemic toxin caerulein, and the AMP caerulein precursor fragment-3 (CPF), both of which are key constituents of the skin secretion of the frog Xenopus laevis [18]–[20] (Fig. 1b). Caerulein is a potent ligand of cholecystokinin receptors expressed in the vertebrate intestine, pancreas, and brain[9], and at sufficiently high concentrations, may induce nausea, hypotension, intestinal cramps, vomiting, and diarrhea[9],[21],[22]. Even in the intestine, the target receptors are only accessible by means of epithelial absorption ...

For series [5], the system named is EpiOral 3D tissues. Put plainly: Transepithelial toxin passage across EpiOral multilayered oral epithelial model (ELISA). Type of series: in vitro ADME. The following applies: 8-11 stacked cell layers, 60 min, n = 8, vs caerulein alone.
[6] abbreviates: Caco-2 monolayer, apical to basolateral, 20 nmol caerulein + 20 nmol CPF (100 µM both) apical, ELISA, n = 9.

With “GIGASILSAGKSALKGLAKGLAEHFAN-NH2 [BLP, bombinin-like peptide 1]”, the “Enhancement of transepithelial passage of bombesin by co-administered BLP” value in series [1] (Caco-2 monolayer, 100 µM both apical, ELISA, n = 9, vs toxin alone) is reported as ~ 4.5 times.

With `CSCC[C@H](NC(=O)[C@H](Cc1c[nH]c2ccccc12)NC(=O)CNC(=O)[C@@H](NC(=O)[C@H](Cc1ccc(OS(=O)(=O)O)cc1)NC(=O)[C@H](CC(=O)O)NC(=O)[C@H](CCC(N)=O)NC(=O)[C@@H]1CCC(=O)N1)[C@@H](C)O)C(=O)N[C@@H](CC(=O)O)C(=O)N[C@@H](Cc1ccccc1)C(N)=O` [caerulein] ([pGlu]QD[sY]TGWMDF-NH2), the “Damage to Caco-2 monolayers by SEM, toxin alone” value in series [2] (100 µM caerulein) is recorded as “does not damage Caco-2 monolayers”. In addition, the “Transepithelial passage of caerulein, % of applied dose at basolateral side” value in series [1] (Caco-2 monolayer on collagen-coated transwell 0.4 µm, apical to basolateral, caerulein alone 100 µM (20 nmol) apical, apical 200 µL / basolateral 1000 µL, ELISA, n = 9) is 0.3 – 1%. Also, in series [1] (setting [6]), the “Transepithelial passage of caerulein, % of applied dose at basolateral side, CPF co-administered” value was 2.3–6.8% and the “Transepithelial passage of caerulein, amount at basolateral side, CPF co-administered” value was 0.45 to 1.36 nmol. Further, the “Transepithelial passage of caerulein, amount at basolateral side” value in series [1] (Caco-2 monolayer, apical to basolateral, caerulein alone 100 µM (20 nmol) apical, ELISA, n = 9) was in the range of 0.06 to 0.20 nmol. Besides, the “Intravenously injected dose that caused severe sickness, molar” value in series [3] (converted from 1 μg/kg BW) is 0.74 pmol/g BW. The “Intravenously injected dose that caused severe sickness” value in series [3] is 1 μg/kg BW. In addition, the “Half-life in the bloodstream” value in series [4] was “up to 45 min”.

With “GFGSFLGKALKAALKIGANALGGSPQQ [CPF, caerulein precursor fragment-3]”, the “Damage to Caco-2 monolayers by SEM, CPF present” value in series [2] (100 µM CPF + caerulein) is “abundant intercellular ruptures in the monolayer”. The “Increase in rate of transepithelial passage of caerulein by co-administered CPF” value in series [1] (Caco-2 monolayer, 100 µM both, on average, vs caerulein alone) is reported as “near sevenfold increase”. In series [5], the “Increase in caerulein passage by co-administered CPF, oral multilayer model” value is “nearly fivefold increase”.
